Values of other authors as cited in patent publication US20210198629A1, “COMPOSITIONS AND METHODS FOR INCREASING BEIGING OF WHITE ADIPOSE TISSUE” (University of Georgia Research Foundation, Inc., priority 2018, published 2021).
Read-outs that look alike come from different tables or passages of the source.

Columns and labels:
BRD9 = biological target: T1, BRD9 (Homo sapiens, UniProt Q9H8M2); details: cited from earlier work
T1 sequence (Q9H8M2 1-597): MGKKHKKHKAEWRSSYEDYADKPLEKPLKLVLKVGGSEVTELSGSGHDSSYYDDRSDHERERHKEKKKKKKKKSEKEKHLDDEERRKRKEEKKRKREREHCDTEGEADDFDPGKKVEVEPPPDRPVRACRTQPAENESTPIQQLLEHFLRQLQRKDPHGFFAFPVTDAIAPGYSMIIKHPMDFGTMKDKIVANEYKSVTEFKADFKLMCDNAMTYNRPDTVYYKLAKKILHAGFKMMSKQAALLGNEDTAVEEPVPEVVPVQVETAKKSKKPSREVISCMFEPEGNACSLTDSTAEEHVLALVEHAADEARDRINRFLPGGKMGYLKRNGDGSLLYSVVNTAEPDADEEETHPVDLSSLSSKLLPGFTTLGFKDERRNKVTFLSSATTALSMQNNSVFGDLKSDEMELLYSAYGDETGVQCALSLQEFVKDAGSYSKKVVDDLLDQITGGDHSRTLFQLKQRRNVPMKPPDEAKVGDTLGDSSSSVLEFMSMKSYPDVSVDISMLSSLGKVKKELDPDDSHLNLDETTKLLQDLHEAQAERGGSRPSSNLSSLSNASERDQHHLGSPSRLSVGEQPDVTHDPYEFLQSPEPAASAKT

rhabdoid tumor cells = details: combinatorial treatment with cytostatic compounds (e.g., cisplatin); cited from earlier work
Ucp1 = details: cited from earlier work
[1] = system: EGFR mutant PC9 cancer cells; details: cited from earlier work

CCn1cc(-c2cccc(C(F)(F)F)c2)c2sc(C(=N)NC3CCS(=O)(=O)CC3)cc2c1=O [I-BRD9, N′-(1,1-dioxothian-4-yl)-5-ethyl-4-oxo-7-[3-(trifluoromethyl)phenyl]thieno[3,2-c]pyridine-2-carboximidamide]
selectivity over the BET family (BRD9; BRD9 vs BET family): > 700 fold | selectivity over the highly homologous BRD7 (BRD9; BRD9 vs BRD7): 200 fold | proliferation of rhabdoid tumor cells (rhabdoid tumor cells): synergistically inhibit

COc1ccc(Br)cc1/C=C1\SC(=O)N(Cc2ccc(C)cc2)C1=O [GQ-16]
WAT beiging, increase of Ucp1 (Ucp1; oral administration 40 mg/kg/d, for 14 days): 5 fold

C/C=C/Cn1cc(-c2cc(OC)c(C(=O)N3CCOCC3)cc2OC)c2cc[nH]c2c1=O [GNE-375]
drug resistance development ([1]; EGFR mutant PC9 cancer cells): prevent the drug resistance development | cell viability ([1]; PC9 study): little effects | expression of ALDH1A1 ([1]; PC9 study): decreases | global gene expression ([1]; PC9 study): little effects

CC[C@H](CO)Nc1nc(NCc2ccccc2)c2ncn(C(C)C)c2n1 [Roscovitine]
WAT beiging (Ucp1; intraperitoneal injection 50 mg/kg/d for 42 days): induced WAT beiging

CCc1cc2c(c(CC)n1)CCC(=O)N2Cc1ccc(-c2ccccc2-c2nn[nH]n2)cc1 [ZD7155]
WAT beiging, increase of Ucp1 (Ucp1; intraperitoneal injection 1 mg/kg/d for 14 days): less than 2 fold

C=C(c1ccc(C(=O)O)cc1)c1cc2c(cc1C)C(C)(C)CCC2(C)C [Bexarotene]
WAT beiging, increase of Ucp1 (Ucp1; oral administration 50 mg/kg/d, for 28 days, only in subcutaneous WATs): 1.5 fold
